Measurements published in ChEMBL document CHEMBL1201862, “PubChem BioAssay data set” (2004).
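Tested at 5 concentrations; 48 h exposure; 96-well plates; endpoints linearly interpolated, else capped at highest concentration. Abbreviation: GI50, concentration required for 50% inhibition of growth.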 Active and inactive are the calls of the source. No stated cut-off is given here; in the data, active = GI50 up to about 1.1 µM and inactive = higher.

Columns and labels:
Experiment in all cases: growth of human tumour cells (NCI), 48 h
RXF 393 = system: RXF 393
CCRF-CEM = system: CCRF-CEM
SNB-75 = system: SNB-75
TK-10 = system: TK-10
SK-MEL-5 = system: SK-MEL-5
786-0 = system: 786-0
SK-OV-3 = system: SK-OV-3
OVCAR-3 = system: OVCAR-3
DLD-1 = system: DLD-1
HOP-92 = system: HOP-92
A549 = system: A549
SN12C = system: SN12C
U-251 = system: U-251
CAKI-1 = system: CAKI-1
SF-295 = system: SF-295
NCI-H460 = system: NCI-H460
OVCAR-4 = system: OVCAR-4
BT-549 = system: BT-549
MDA-MB-435 = system: MDA-MB-435
MDA-N = system: MDA-N

| SMILES | GI50 (RXF 393) | GI50 (CCRF-CEM) | GI50 (SNB-75) | GI50 (TK-10) | GI50 (SK-MEL-5) | GI50 (786-0) | GI50 (SK-OV-3) | GI50 (OVCAR-3) | GI50 (DLD-1) | GI50 (HOP-92) | GI50 (A549) | GI50 (SN12C) | GI50 (U-251) | GI50 (CAKI-1) | GI50 (SF-295) | GI50 (NCI-H460) | GI50 (OVCAR-4) | GI50 (BT-549) | GI50 (MDA-MB-435) | GI50 (MDA-N) |
| --- | --- | --- | --- | --- | --- | --- | --- | --- | --- | --- | --- | --- | --- | --- | --- | --- | --- | --- | --- | --- |
| CC1(C2CCC3(C)OC3C2)CO1 (stereo not drawn) | > 100 µM (inactive) | > 100 µM (inactive) | > 100 µM (inactive) | > 100 µM (inactive) | > 100 µM (inactive) | > 100 µM (inactive) | > 100 µM (inactive) | > 100 µM (inactive) | > 100 µM (inactive) | > 100 µM (inactive) | > 100 µM (inactive) | > 100 µM (inactive) | > 100 µM (inactive) | > 100 µM (inactive) | > 100 µM (inactive) | > 100 µM (inactive) | > 100 µM (inactive) |  |  |  |
| COC(=O)[C@H]1C=C[C@@H](C)n2c(=O)c3cc4ccccc4cc3c(=O)n21 | > 100 µM (inactive) | > 100 µM (inactive) | 43.6 µM (inactive) | > 100 µM (inactive) | > 100 µM (inactive) | > 100 µM (inactive) | > 100 µM (inactive) | > 100 µM (inactive) | > 100 µM (inactive) | > 100 µM (inactive) | > 100 µM (inactive) | > 100 µM (inactive) | > 100 µM (inactive) | > 100 µM (inactive) | > 100 µM (inactive) | > 100 µM (inactive) |  |  |  |  |
| COc1ccc2ccccc2c1CN1CCOCCOCCN(Cc2c(OC)ccc3ccccc23)CCOCCOCC1 | > 100 µM (inactive) | > 39.1 µM (inactive) | > 52.5 µM (inactive) | > 100 µM (inactive) | > 38.9 µM (inactive) | 31.8 µM (inactive) | > 100 µM (inactive) | 16.7 µM (inactive) | > 100 µM (inactive) | > 27.9 µM (inactive) | 98.2 µM (inactive) | > 69.8 µM (inactive) | > 93.3 µM (inactive) | > 100 µM (inactive) | > 100 µM (inactive) | 25.4 µM (inactive) | > 100 µM (inactive) |  |  |  |
| COc1ccc2c(c1)[n+]([O-])c(/C(C)=N/NC(=O)CC#N)c[n+]2[O-] | > 100 µM (inactive) | > 100 µM (inactive) | > 100 µM (inactive) | > 100 µM (inactive) | > 100 µM (inactive) | > 100 µM (inactive) | > 100 µM (inactive) | > 100 µM (inactive) | 74.6 µM (inactive) | > 100 µM (inactive) | > 100 µM (inactive) | > 100 µM (inactive) | > 100 µM (inactive) | 35.2 µM (inactive) | > 100 µM (inactive) | > 100 µM (inactive) | > 100 µM (inactive) |  |  |  |
| COC(=O)c1nn(C(=N)c2ccc(Cl)cc2)c2c1CCCCC2 | > 100 µM (inactive) | > 100 µM (inactive) | > 100 µM (inactive) | > 100 µM (inactive) | > 100 µM (inactive) | > 100 µM (inactive) | > 100 µM (inactive) |  | > 100 µM (inactive) | > 100 µM (inactive) | > 100 µM (inactive) | > 100 µM (inactive) | > 100 µM (inactive) | > 100 µM (inactive) | > 100 µM (inactive) | > 100 µM (inactive) | > 100 µM (inactive) |  |  |  |
| O=C(/C=C/c1ccc([N+](=O)[O-])cc1)c1ccc(NCc2nc3ccccc3[nH]2)cc1 |  | 1.57 µM (inactive) | 3.93 µM (inactive) | 5.96 µM (inactive) | 5.18 µM (inactive) | 3.13 µM (inactive) | 13.6 µM (inactive) | 3.09 µM (inactive) | 3.97 µM (inactive) | 8.57 µM (inactive) |  | 2.96 µM (inactive) | 1.75 µM (inactive) | 6.52 µM (inactive) | 3.86 µM (inactive) | 2.22 µM (inactive) | 13.3 µM (inactive) |  |  |  |
| O=C1/C(=C/c2ccccc2)CN(C(=O)CCN2CCCC2)C/C1=C\c1ccccc1 | 2.33 µM (inactive) | 0.286 µM (active) | 4.98 µM (inactive) | 3.12 µM (inactive) | 1.83 µM (inactive) | 0.895 µM (active) | 8.26 µM (inactive) | 2.08 µM (inactive) | 1.46 µM (inactive) | 4.44 µM (inactive) | 3.91 µM (inactive) | 1.51 µM (inactive) | 0.794 µM (active) | 3.98 µM (inactive) | 1.09 µM (active) | 1.77 µM (inactive) | 1.57 µM (inactive) | 1.56 µM (inactive) | 1.28 µM (inactive) | 0.426 µM (active) |
| COC(=O)C1=C(c2cc(OC)c(OC)c(OC)c2)OC(c2ccc(OC)c(OC)c2)C1 (stereo not drawn) | 35.9 µM (inactive) | 60.1 µM (inactive) | 66.1 µM (inactive) | 54.3 µM (inactive) | 29.7 µM (inactive) | 73.3 µM (inactive) | 40.5 µM (inactive) | 38.6 µM (inactive) | 36.5 µM (inactive) | 42.5 µM (inactive) | 46.8 µM (inactive) | 51.6 µM (inactive) | 42 µM (inactive) | > 100 µM (inactive) | 35.6 µM (inactive) | 39.5 µM (inactive) | 47.2 µM (inactive) |  |  |  |
| CCC(=S)N(C)O | 25.9 µM (inactive) | 0.459 µM (active) | 41 µM (inactive) | 60.1 µM (inactive) | 8.55 µM (inactive) | 11.6 µM (inactive) | 76.9 µM (inactive) | 3.08 µM (inactive) | 24.6 µM (inactive) | > 85.9 µM (inactive) | 20.3 µM (inactive) | 22 µM (inactive) | 23.4 µM (inactive) | 81.8 µM (inactive) | 34.2 µM (inactive) | 10.1 µM (inactive) | 9.53 µM (inactive) | > 100 µM (inactive) | 15.6 µM (inactive) | 35.9 µM (inactive) |
| Oc1ccc2ccccc2c1/N=N/c1ccsc1 | 53.3 µM (inactive) | 83.8 µM (inactive) | > 100 µM (inactive) | > 100 µM (inactive) | > 100 µM (inactive) | > 100 µM (inactive) | > 100 µM (inactive) | > 100 µM (inactive) | > 100 µM (inactive) | > 100 µM (inactive) | > 100 µM (inactive) | > 100 µM (inactive) | > 100 µM (inactive) | > 100 µM (inactive) | > 100 µM (inactive) | > 100 µM (inactive) | > 100 µM (inactive) |  |  |  |
| O=C(n1c2ccccc2c2nnc(S)nc21)C(F)(F)F | 33.4 µM (inactive) | > 100 µM (inactive) | > 100 µM (inactive) | 0.962 µM (active) | > 100 µM (inactive) | > 100 µM (inactive) | > 100 µM (inactive) | > 100 µM (inactive) | > 100 µM (inactive) | > 100 µM (inactive) | > 100 µM (inactive) | > 100 µM (inactive) | > 100 µM (inactive) | > 100 µM (inactive) | > 100 µM (inactive) | > 100 µM (inactive) | > 100 µM (inactive) |  |  |  |
| CC12C(=CC(=O)CC1SCCS(=O)(=O)O)C(C#N)=C(N)N2c1ccc(Cl)c(Cl)c1 (stereo not drawn) | 36.8 µM (inactive) | > 100 µM (inactive) | > 100 µM (inactive) | > 100 µM (inactive) | > 100 µM (inactive) | > 100 µM (inactive) | > 100 µM (inactive) | > 100 µM (inactive) | > 100 µM (inactive) | 30.6 µM (inactive) | > 100 µM (inactive) | > 100 µM (inactive) | > 100 µM (inactive) | > 100 µM (inactive) | > 100 µM (inactive) | 10 µM (inactive) | > 100 µM (inactive) |  |  |  |
| COc1cccc(/C=N/[N-]C(=S)Nc2ccccc2)c1[O-].O.[Zn+2] | 35.9 µM (inactive) | 29.3 µM (inactive) | 43.7 µM (inactive) | > 100 µM (inactive) | 61.1 µM (inactive) | > 100 µM (inactive) | 44.4 µM (inactive) | 40.5 µM (inactive) | 29 µM (inactive) | 73.5 µM (inactive) | 34.1 µM (inactive) | > 100 µM (inactive) | 60.4 µM (inactive) | 87.7 µM (inactive) | 76.7 µM (inactive) | 50.9 µM (inactive) | 23.5 µM (inactive) |  |  |  |
| COc1cccc2c1C(=O)c1c(O)c3c(c(O)c1C2=O)CC(O)(C(O)CO)CC3OC1CC(N2CCOCC2)C(O)C(C)O1 (stereo not drawn) | 0.0155 µM (active) | 0.00849 µM (active) | 0.00388 µM (active) | 0.00377 µM (active) | 0.00223 µM (active) | 0.0277 µM (active) | 0.00362 µM (active) | 0.0023 µM (active) | < 0.001 µM (active) | 0.065 µM (active) | 0.00108 µM (active) | 0.00205 µM (active) | 0.0047 µM (active) | 0.00175 µM (active) | 0.00206 µM (active) | < 0.001 µM (active) | 0.00337 µM (active) | 0.0294 µM (active) | 0.00883 µM (active) | 0.0143 µM (active) |
